pIC50: −log10 of the molar value.
Experiments:
[1] = Phase I clinical evaluation; cited from earlier work
[2] = system: cancer cell lines; conditions: some cancer cell lines; cited from earlier work
[3] = system: MDA MB231 (triple negative human breast cancer); experiment: Cytotoxicity analysis by MTT assay; format: cell-based; conditions: MDA-MB-231, 96 hours exposure, read-out: IC50 (nanomolar) MDA MB 231 (Triple negative breast cancer cell line)
Method: MDA MB231 (triple negative human breast cancer) was obtained from the American Type Culture Collection. The cell-line was maintained in monolayer culture in 75 cm^2 flasks (TPP, Switzerland) under a humidified 5% CO2 atmosphere at 37° C. The MDA MB231 cell line was maintained in high glucose DMEM (4.5 g\l; Invitrogen), foetal bovine serum (10%, Biosera UK), non-essential amino acids (ix; Invitrogen), L-glutamine (2 mM; Invitrogen) and Penicillin-Streptomycin (1% v/v, Invitrogen). For passaging, cells were washed with PBS (GIBCO 14040, Invitrogen, UK), incubated with trypsine (GIBCO 25300, Invitrogen, UK), and re-seeded into fresh medium. For seeding, cells were counted using a Neubauer haemocytometer (Assistant, Germany) by microscopy (Nikon, USA) on a non-adherent suspension of cells that were washed in PBS, trypsinised, centrifuged at 8° C. at 8000 rpm for 5 min and re-suspended in fresh medium.
The cells were grown in normal cell culture conditions at 37° C. under a 5% CO2 humidified atmosphere using appropriate medium. […] After 96 h of continuous exposure to each compound, the cytotoxicity was determined using the 3-(4,5-Dimethylthiazol-2-yl)-2,5-diphenyltetrazolium bromide (MTT) (Lancaster Synthesis Ltd, UK) colorimetric assay. Absorbance was quantified by spectrophotometry at X=570 nm (Envision Plate Reader, PerkinElmer, USA). […]

For `C=C1C[C@H]2C=Nc3cc(OCCCOc4cc5c(cc4OC)C(=O)N4CC(=C)C[C@H]4C=N5)c(OC)cc3C(=O)N2C1`, the adverse effects [1] is listed as “lower-limb edema and fatigue”.

For `COC(=O)c1cc(-c2ccc(NC(=O)c3nc(NC(=O)CCCOc4cc5c(cc4OC)C(=O)N4CCC[C@H]4C=N5)cn3C)cc2)cn1C`, the cytotoxic activity range [2] is given as “femtomolar range”.

In the case of `COC(=O)c1cc2cc(NC(=O)c3cc(NC(=O)CO[C@@H]4CCN5C(=O)c6cc(OC)c(OC)cc6N=C[C@@H]5C4)cn3C)ccc2s1` [Compound 23, Methyl 5-(4-(2-(((6aS,8R)-2,3-dimethoxy-12-oxo-6a,7,8,9,10,12-hexahydrobenzo[e]pyrido[1,2-a][1,4]diazepin-8-yl)oxy)acetamido)-1-methyl-1H-pyrrole-2-carboxamido)benzo[b]thiophene-2-carboxylate], the pIC50 [3] was 6.66.

Source: US10399970B2, “Pyrridinobenzodiazepine and benzopyrridodiazecine compounds” (FEMTOGENIX LIMITED, priority 2015, dated 2019)
